Assay results from patent US9676720B2, “Substituted biaryl compound” (UBE INDUSTRIES, LTD., priority 2013, dated 2017).

How the values were obtained:
human EP2 receptor = human EP2 receptor (Homo sapiens (Human), UniProt P43116); assay: Measurement of EP2 receptor binding action; conditions: membrane fraction of HEK293 cells expressing human EP2 receptor; [3H]prostaglandin E2 10 nM
Method: The membrane fraction was recovered on glass fiber filter paper (GF/B, manufactured by Whatman) using a cell harvester (M30R, manufactured by Brandel), and after washing with a buffer solution (10 mM MES-KOH (pH 6.0), 10 mM MgCl2), radioactivity was measured with a liquid scintillation analyzer (2000CA, manufactured by Packard). […] Ki=IC50/(1+([^3H]prostaglandin E2 concentration/Kd))
Note that the dissociation constant (Kd value) was calculated by Scatchard analysis.

[1] = tested on: Pulmonary fibroblasts derived from a human fetus (IMR90); assay: Test for inhibition of pulmonary fibroblast proliferation (BrdU incorporation); format: cell-based; conditions: IMR90; FGF 10 ng/mL; BrdU incorporation; read-out: IC50 value (nM) of inhibition effect of pulmonary fibroblast proliferation
Method: Measurement of inhibition effect of pulmonary fibroblast proliferation was performed by modifying the method of Huang et al. (American Journal of Respiratory Cell and Molecular Biology, 39, 482 (2008)). Pulmonary fibroblasts derived from a human fetus (IMR90, purchased from American Type Culture Collection) were cultured in DMEM medium containing 10% FBS and seeded at 1×10^4 cells/well of a 96-well plate. After culturing for approximately 8 hours in a carbon dioxide incubator, the medium was replaced with FBS-free DMEM medium and the culturing was performed for one night. On the following day, the medium was replaced with a new FBS-free DMEM medium, and then a test compound dissolved in dimethyl sulfoxide (final concentration: 0.1%) and FGF (final concentration: 10 ng/mL, manufactured by Wako Pure Chemical Industries, Ltd.) were added thereto and allowed to stand undisturbed in a carbon dioxide incubator. After 22 hours, a BrdU labeling solution (manufactured by Roche) was added and culturing was performed for another 2 hours. After the completion of the culturing, amount of BrdU incorporation was measured using Cell Proliferation ELISA BrdU (colorimetric) (manufactured by Roche). The concentration of the test compound required to inhibit BrdU incorporation to 50% (IC50 value) was calculated by non-linear regression of the test compound concentration and the amount of BrdU incorporation using EXSAS (Ver. 8.0.0, manufactured by Arm Systex).

Chain of human EP2 receptor (P43116 whole entry): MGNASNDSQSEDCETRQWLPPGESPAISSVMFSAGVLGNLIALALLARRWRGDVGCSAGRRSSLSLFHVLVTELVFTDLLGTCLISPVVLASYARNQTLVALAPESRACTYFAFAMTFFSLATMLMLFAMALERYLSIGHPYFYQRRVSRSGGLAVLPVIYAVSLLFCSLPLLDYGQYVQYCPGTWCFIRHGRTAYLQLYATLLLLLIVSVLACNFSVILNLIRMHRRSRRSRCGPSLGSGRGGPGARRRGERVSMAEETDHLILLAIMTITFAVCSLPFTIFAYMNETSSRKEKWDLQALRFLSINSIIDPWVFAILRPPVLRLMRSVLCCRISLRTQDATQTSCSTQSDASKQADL

Compound `CC#Cc1cccc(-c2ccc(CN(Cc3cccc(NCC(=O)O)n3)S(=O)(=O)c3ccsc3)cc2)c1` [Example 18] has a Ki (human EP2 receptor) of 0.99 nM and an IC50 [1] of 0.0042 nM.
